Key:
[1] = test system: human VEGF165, VEGF121, bFGF and HGF transcripts in human cardiac cells; test: Human cardiac cells: quantitative RT-PCR after relaxin treatment in vitro; assay type: cell-based
Description: Oligonucleotides were designed to rat or human bFGF, human VEGF165 amino acid or 121 amino acid isoforms, and their respective rat homologues (VEGF164 and VEGF120), and human HGF (for use with the PE Applied Biosystems “GeneAmp PCR System 9600”). Rat and human GAPDH primers and probes were purchased from BioSource International Inc. and PE Applied Biosystems, respectively. Tissue samples and monolayer cells were suspended in RNA STAT-60 (Tel-Test, Inc., Friendswood, Tex.) and processed following vendor instructions. Reverse transcription-polymerase chain reaction (RT-PCR) was performed using either rat or human total RNA as template. 150 ng of total RNA was used for the analysis of VEGF, bFGF and HGF mRNA expression; 10 ng of total RNA was used for GAPDH mRNA expression. Reverse transcription-polymerase chain reaction (RT-PCR) reagents were purchased from PE Biosystems (Foster City, Calif.).
To determine if the effects of relaxin observed in the rat were also seen in human cells, total RNA from cardiac cells was extracted following treatment of cells with 1, 10, and 100 ng/ml relaxin for 24 hours. Human cardiac cells were cultured for 24 hours either without or with relaxin (1-100 ng/ml). Untreated cells were incubated for the same 24 hour period under hypoxic (2% O2) conditions. Using 150 ng of total RNA for human VEGF and bFGF transcripts and 10 ng of total RNA for GAPDH transcripts, primer/probe sets were used to generate RT-PCR products for human VEGF 165aa and 121aa isoforns and human bFGF. Data were analyzed using Sequence Detector v1.6.3 software (Applied Biosystems/PE). VEGF and bFGF expression levels are graphed relative to GAPDH transcript levels. Data are shown as means±SEM, where n=3 per treatment group; *p<0.05; Student-Newman-Keuls test. […] Absolute baseline levels of bFGF mRNA transcripts expressed by these cells were approximately 2-fold greater than those of either the VEGF121 or the VEGF165 isoforms. Total RNA from cells incubated under hypoxic conditions was analyzed as a positive control for the stimulation of VEGF isoforms. As predicted, mRNA transcript levels for both VEGF isoforms increased 220% over untreated control levels following 24 hr exposure to hypoxia, as shown in FIG. 6. bFGF expression was not induced by hypoxia. […] Relaxin had no effect on cellular proliferation, as assessed by ^3H-thymidine incorporation, on cellular morphology, or on desmin or vimentin staining patterns.

[2] = test system: Female Sprague-Dawley rats; test: Kidney function in cyclosporine-treated rats; assay type: in vivo, rat; conditions: for GFR / Urine Flow: Normal = 1.0
Description: Relaxin (rhRlx) was administrated via subcutaneous pumps at dose of either 0.1 mg/kg/day or 0.5 mg/kg/day for 10 days (day 0-10). On day B2 (baseline), Day 4, and Day 9, all rats were put into metabolic cages. The 24-hour urine volume was measured to calculate urine flow rate using the following formula: […]
Blood and urine were collected for creatinine measurement to calculate the GFR using the following formula: […]

THP-1 cells = test: THP-1 cells: secreted VEGF protein by ELISA; assay type: cell-based, human
Description: THP-1 cells were obtained from the American Type Culture Collection (ATCC# TIB202), and grown in Iscove's medium supplemented with 10% fetal bovine serum and 2 mM L-glutamine. For experiments, THP-1 cells were cultured at 5×10^5 cells/ml in 24-well plates, treated and allowed to incubate for various times at 37° C. Conditioned media and cells were then collected, and cells removed by centrifugation at 500 g for 5 min. Media were stored at −80° C. until assayed.
VEGF protein was quantified in an ELISA kit purchased from R & D Systems (Minneapolis, Minn.). The lower limit of sensitivity of the assay was 10 pg/ml.
Because macrophages are the inflammatory cells predominantly responsible for the angiogenic response that occurs during healing, a monocyte/macrophage cell line shown previously to bind relaxin with high affinity (THP-1) (Parsell et al. (1996) J. Biol. Chem. 271:27936-27941) was tested for relaxin inducibility of VEGF and bFGF. THP-1 cells were cultured in vitro, treated with relaxin (100 ng/ml) for 3 hours, and assayed for VEGF and bFGF mRNA induction. […] In order to determine whether the increase in VEGF mRNA observed following short-term relaxin treatment was reflected by an elevation in secreted VEGF protein, THP-1 cells were treated with relaxin (0.01-100 ng/ml) for 24 h, the conditioned media collected, and VEGF content in the media quantified by ELISA. […]

[3] = test system: Rat aortic adventitial fibroblasts; test: Collagen and fibronectin expression by adventitial fibroblasts; assay type: cell-based; conditions: rhRlx 10 ng/ml
Description: Aortic adventitial fibroblasts from normal adult Sprague/Dawley rats were explanted by carefully dissecting the adventitia away from the media and culturing 1 mm^3 pieces in Dulbecco's modified Eagles Medium (DMEM), plus 10% bovine fetal calf serum. When cultures were confluent, fibroblasts were dispersed with trypsin and passaged once prior to use in experiments. Fibroblasts were seeded at 10^5 cells/cm^2 in DMEM+10% FBS in 48-well plates for experiments and assayed for collagen and fibronectin expression, as previously described (Unemori et al. (1996) J. Clin. Invest. 98:2739-2745). […] Half of the cultures were also treated simultaneously with 10 ng/ml of rhRlx. Proteins were biosynthetically labeled with ^3H-proline (25 μCi/ml) (Amersham Corp., Arlington Heights, Ill.), in the presence of ascorbate (50 μg/ml) and β-aminopropionitrile (80 μg/ml), and conditioned media collected 24 hours later. Media were electrophoresed on SDS-PAGE, and the density of collagen and fibronectin bands was determined by densitometric scanning using a digital imaging system (Alpha Innotech Corp, San Leandro, Calif.).

[4] = CsA and rhRlx at either 0.1 mg/kg or 0.5 mg/kg
[5] = Normal rats + 0.5 mg/kg, Day 10

**Q.** With “rhRLX: recombinant human relaxin, identical in amino acid sequence to the product of the human H2 gene; A chain of 24, B chain of 29 amino acids” as the substance, how does the “Basic FGF expression, maximum elevation over baseline” value ([1]; 100 ng/ml, 24 hours) read?
**A.** The value was 2.2 fold.

**Q.** And the “VEGF121 mRNA, maximum increase in expression over untreated controls” value ([1]; 100 ng/ml, 24 hours)?
**A.** The value was 3 fold.

**Q.** What about the “VEGF165 mRNA, maximum increase in expression over untreated controls” value ([1]; 100 ng/ml, 24 hours) of the same substance?
**A.** Its value is 2.3 fold.

**Q.** And the “Transcripts for human HGF” value ([1]; untreated vs relaxin treated cells)?
**A.** Its value is “no difference in expression”.

**Q.** What about the GFR ([2]; CsA + 0.1 mg/kg, Day 5) of the same substance?
**A.** The GFR was 0.99 ± 0.15.

**Q.** What about the “Urine Flow” value ([2]; CsA + 0.1 mg/kg, Day 5) of the same substance?
**A.** Its value is 1.21 ± 0.36.

**Q.** And the GFR ([2]; CsA + 0.1 mg/kg, Day 10)?
**A.** Its GFR is 1.49 ± 0.18.

**Q.** And the “Urine Flow” value ([2]; CsA + 0.1 mg/kg, Day 10)?
**A.** The value was 1.59 ± 0.41.

**Q.** What about the GFR ([2]; CsA + 0.5 mg/kg, Day 5) of the same substance?
**A.** Its GFR is 1.231 ± 0.15.

**Q.** What about the “Urine Flow” value ([2]; CsA + 0.5 mg/kg, Day 5) of the same substance?
**A.** Its value is 1.27 ± 0.16.

**Q.** And the GFR ([2]; CsA + 0.5 mg/kg, Day 10)?
**A.** Its GFR is 1.39 ± 0.13.

**Q.** What about the “Urine Flow” value ([2]; CsA + 0.5 mg/kg, Day 10) of the same substance?
**A.** Its value is 1.067 ± 0.11.

**Q.** What about the “creatinine clearance compared to animals treated with CsA alone” value [2, 4] of the same substance?
**A.** Its value is “significantly improved”.

**Q.** What about the “urine flow rate compared to animals treated with CsA alone” value [2, 4] of the same substance?
**A.** The value was “significantly improved”.

**Q.** And the GFR ([2]; Normal rats + 0.5 mg/kg, Day 5)?
**A.** The GFR was 1.47 ± 0.08.

**Q.** What about the “Urine Flow” value ([2]; Normal rats + 0.5 mg/kg, Day 5) of the same substance?
**A.** The value was 1.68 ± 0.02.

**Q.** And the GFR [2, 5]?
**A.** Its GFR is 1.50 ± 0.09.

**Q.** And the “Urine Flow” value [2, 5]?
**A.** Its value is 1.42 ± 0.01.

**Q.** What about the “creatinine clearance compared to the baseline” value ([2]; normal rats, 0.5 mg/kg, day 5) of the same substance?
**A.** Its value is 147%.

**Q.** What about the “urine flow rate compared to the baseline” value ([2]; normal rats, 0.5 mg/kg, day 5) of the same substance?
**A.** Its value is 168%.

**Q.** What about the VEGF protein secretion (THP-1 cells; 0.01-100 ng/ml for 24 h, dose-dependent) of the same substance?
**A.** Its VEGF protein secretion is “approximately 150%”.

**Q.** And the “threshold relaxin concentration required for stimulation of VEGF protein secretion” value (THP-1 cells; 24 h)?
**A.** The value was 0.2 to 1.0 ng/mL.

**Q.** What about the “decrease of TGF-β-induced fibronectin over-expression” value [3] of the same substance?
**A.** Its value is 28±6%.

**Q.** What about the “inhibition of TGF-β-induced collagen over-expression” value [3] of the same substance?
**A.** The value was 21±5%.

— patent publication US6723702B2, “Use of relaxin treat diseases related to vasoconstriction” (RAS Medical, Inc., priority 2000, dated 2004)
